The source of these data is ChEMBL document CHEMBL1201862, “PubChem BioAssay data set” (2004).

SMILES strings stand for the structures.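 96-well plates; 48 h exposure; 5 concentrations. Endpoints by linear interpolation between flanking doses. Not reached: highest tested concentration assigned. Here, GI50 denotes the concentration required for 50% inhibition of growth.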 The source made the active and inactive calls. No stated cut-off is given here; in the data, active = GI50 up to about 1.1 µM and inactive = higher.

Some test systems named below: 786-0; A498; ACHN; BT-549; HOP-62; Hs-578T; M14; Malme-3M; NCI-H23; NCI-H460; OVCAR-3; OVCAR-4; PC-3; SK-MEL-5; SK-OV-3; SNB-19; SW-620; T47D; UO-31; SK-MEL-2.
What all share (assay): NCI-60 cell line screen, 48 h

Turning to `CN(C)c1ccc(/C=C(\C#N)C(N)=C(C#N)C#N)cc1`, the GI50 in the test with 786-0, with A498, in the test with ACHN, with BT-549, in the test with HOP-62 and with Hs-578T was > 100 µM (inactive) each time. Besides, the GI50 was 30 µM (inactive) with M14; 32 µM (inactive) in the test on Malme-3M; > 100 µM (inactive) in the test on NCI-H23; > 100 µM (inactive) with NCI-H460; > 100 µM (inactive) with OVCAR-3; > 100 µM (inactive) in the test on OVCAR-4. Moreover, the GI50 with PC-3, in the test on SK-MEL-5, in the test with SK-OV-3, with SNB-19, in the test with SW-620 and in the test on T47D was > 100 µM (inactive) each time. Moreover, the GI50 in the test on UO-31 is > 100 µM (inactive).
In the case of `COC(=O)[C@H]1C[C@H]1NC(=O)C(CC(=O)OCc1ccccc1)NC(=O)OCc1ccccc1` (stereo partly drawn), the GI50 in the test with 786-0 was > 100 µM (inactive); in the test on A498 it was 61.8 µM (inactive); with ACHN, 36.8 µM (inactive); with BT-549, 23.4 µM (inactive); in the test on HOP-62, > 10 µM (inactive); in the test on Hs-578T it was > 100 µM (inactive). Further, the GI50 in the test on M14 was 25.7 µM (inactive); in the test on NCI-H23 it was 41.8 µM (inactive); in the test with NCI-H460, 31.2 µM (inactive); with PC-3, 35.3 µM (inactive); in the test on SK-MEL-2, 18.6 µM (inactive); in the test with SK-MEL-5, 25.4 µM (inactive). The GI50 was 55 µM (inactive) with SK-OV-3, > 100 µM (inactive) in the test on SNB-19, > 100 µM (inactive) in the test with SW-620 and 11.9 µM (inactive) in the test with T47D.
As to `CC(C)(C)N/N=C(/Cc1nc2c3c(ccc2nc1O)C(=O)c1ccccc1C3=O)C(=O)NC1=C(Cl)C(=O)c2ccccc2C1=O`, the GI50 with 786-0 is 33.2 µM (inactive); in the test with A498 it was 88.9 µM (inactive); with ACHN, 5.37 µM (inactive); with BT-549, 70.5 µM (inactive); in the test with Hs-578T it was 24.7 µM (inactive); in the test with M14 it was 15.5 µM (inactive). For the same compound, the GI50 is 12.3 µM (inactive) in the test with Malme-3M; 42.1 µM (inactive) in the test on NCI-H23; 5.42 µM (inactive) in the test with NCI-H460; 13.9 µM (inactive) in the test with OVCAR-3; 5.16 µM (inactive) in the test with OVCAR-4; 7.71 µM (inactive) in the test on PC-3. Besides, the GI50 in the test with SK-MEL-2 is 12.4 µM (inactive); with SK-MEL-5, 11.1 µM (inactive); in the test on SK-OV-3 it was 7.16 µM (inactive); in the test with SNB-19, 72.8 µM (inactive); with SW-620, 39.3 µM (inactive); in the test with T47D it was 23.3 µM (inactive). Further, the GI50 in the test with UO-31 was 4.91 µM (inactive).
Turning to `O=C(NCCCCNCCCNC(=O)C(F)(F)F)C(F)(F)F`, the GI50 in the test on 786-0, with A498, in the test with ACHN, in the test with BT-549, in the test on HOP-62 and with Hs-578T was > 100 µM (inactive) each time. The GI50 in the test on M14, in the test with NCI-H23, in the test with NCI-H460, in the test on OVCAR-3, in the test on OVCAR-4 and in the test on PC-3 was > 100 µM (inactive) throughout. Further, the GI50 in the test with SK-MEL-2 was > 100 µM (inactive); with SK-MEL-5, > 100 µM (inactive); in the test with SK-OV-3, 26.8 µM (inactive); in the test on SNB-19, > 100 µM (inactive); in the test on SW-620, > 100 µM (inactive); with T47D, > 100 µM (inactive). Moreover, the GI50 with UO-31 was > 100 µM (inactive).
As for `COc1ccc2oc(=O)c3c(c2c1C)OC(C)(C)C=C3`, the GI50 in the test on 786-0, with A498, with ACHN, with BT-549, in the test with HOP-62 and in the test with Hs-578T was > 100 µM (inactive) in each case. Moreover, the GI50 in the test on M14, with Malme-3M, in the test on NCI-H23, in the test with NCI-H460, with OVCAR-3 and in the test on PC-3 was > 100 µM (inactive) in each case. The GI50 in the test with SK-MEL-2, with SK-MEL-5, with SK-OV-3, in the test with SNB-19, with SW-620 and in the test on T47D was > 100 µM (inactive) throughout. Moreover, in the test with UO-31, the GI50 is > 100 µM (inactive).
`CN(C)CCCN1c2ccccc2CCc2cc([N+](=O)[O-])ccc21`: the GI50 with 786-0 was 15.2 µM (inactive); in the test on A498, 12.8 µM (inactive); in the test with ACHN, 16.3 µM (inactive); in the test with BT-549 it was 16.6 µM (inactive); in the test on HOP-62, 15.8 µM (inactive); in the test on Hs-578T, 16.2 µM (inactive). For the same compound, the GI50 with M14 was 16.3 µM (inactive); in the test on Malme-3M it was 17.7 µM (inactive); with NCI-H23 it was 19 µM (inactive); with NCI-H460, 15 µM (inactive); in the test with OVCAR-3, 17.9 µM (inactive); in the test with OVCAR-4 it was 17.7 µM (inactive). The GI50 is 16.7 µM (inactive) with PC-3; 20 µM (inactive) with SK-MEL-2; 12.9 µM (inactive) in the test with SK-MEL-5; 16.9 µM (inactive) in the test on SNB-19; 17.1 µM (inactive) with T47D; 14.9 µM (inactive) with UO-31.
Turning to `CCOC(=O)c1cnc(-n2[nH]c3c(c2=O)CCCC3)[nH]c1=O`, the GI50 is 60 µM (inactive) in the test on 786-0; 62.8 µM (inactive) in the test on A498; 50.2 µM (inactive) with ACHN; 47.1 µM (inactive) in the test with BT-549; > 100 µM (inactive) with Hs-578T; 36.4 µM (inactive) with M14. The GI50 in the test with Malme-3M is 77.6 µM (inactive); with NCI-H23, 72.8 µM (inactive); in the test with NCI-H460, 45.5 µM (inactive); with OVCAR-4, 57.5 µM (inactive); with PC-3, 57.4 µM (inactive); in the test with SK-MEL-2, 42.6 µM (inactive). Besides, the GI50 is 75.2 µM (inactive) with SK-MEL-5; 80.5 µM (inactive) in the test on SK-OV-3; > 100 µM (inactive) with SNB-19; 35.2 µM (inactive) with SW-620; > 100 µM (inactive) in the test with T47D; 54.6 µM (inactive) in the test on UO-31.
`COc1ccc(C(=O)/C=C/c2ccc(OCCSCCCCCCCCCCSCCOc3ccc(/C=C/C(=O)c4ccc(OC)c(OC)c4)cc3)cc2)cc1OC`: the GI50 in the test on 786-0, with A498, with ACHN, in the test on BT-549, in the test with HOP-62 and with Hs-578T was > 100 µM (inactive) throughout. In addition, the GI50 with M14, with Malme-3M, in the test on NCI-H23, in the test with NCI-H460, in the test with PC-3 and with SK-MEL-5 was > 100 µM (inactive) throughout. Also, the GI50 in the test with SK-OV-3, with SW-620 and in the test with T47D was > 100 µM (inactive) in each case.
With `O=C(O)CSc1nnc(CCCCCCCCc2nnc(SCC(=O)O)o2)o1`, the GI50 in the test on 786-0 was > 100 µM (inactive); in the test on A498, > 100 µM (inactive); with ACHN, > 100 µM (inactive); in the test on BT-549, > 100 µM (inactive); with HOP-62, > 100 µM (inactive); in the test with Hs-578T, 82.2 µM (inactive). In addition, the GI50 in the test with M14, in the test with Malme-3M, in the test on NCI-H23, with NCI-H460, in the test on OVCAR-4 and in the test on PC-3 was > 100 µM (inactive) in each case. The GI50 with SK-MEL-2, with SK-MEL-5, in the test on SK-OV-3, in the test with SNB-19, with SW-620 and in the test on T47D was > 100 µM (inactive) throughout. Further, the GI50 in the test on UO-31 was > 100 µM (inactive).
Turning to `O=C1C=CN(C2OC(CO)C(O)C2O)C(=O)C1` (stereo not drawn), the GI50 in the test on 786-0 is 13.3 µM (inactive); in the test on A498 it was 867 µM (inactive); in the test with ACHN, 39.2 µM (inactive); in the test on BT-549, > 2500 µM (inactive); with HOP-62, 36.3 µM (inactive); in the test with Hs-578T it was 126 µM (inactive). The GI50 with M14 is 231 µM (inactive); in the test with NCI-H460, 0.942 µM (active); in the test with OVCAR-3, 692 µM (inactive); with PC-3, 155 µM (inactive); in the test on SK-OV-3, 1320 µM (inactive); in the test with SW-620, 32.5 µM (inactive). The GI50 was 173 µM (inactive) with T47D and 29.7 µM (inactive) in the test with UO-31.
For `COc1cc2c(c(OC)c1)[C@H](C)N(Cc1ccccc1)C(C)C2` (stereo partly drawn), the GI50 is 36.1 µM (inactive) in the test on 786-0; > 100 µM (inactive) in the test with A498; 31.3 µM (inactive) with ACHN; 61.8 µM (inactive) in the test with BT-549; > 100 µM (inactive) in the test with HOP-62; 25.5 µM (inactive) with Hs-578T. The GI50 in the test with M14 was 17.7 µM (inactive); in the test on Malme-3M, 62.4 µM (inactive); with NCI-H23 it was 95.3 µM (inactive); in the test on NCI-H460, 11 µM (inactive); in the test with PC-3, > 100 µM (inactive); in the test on SK-MEL-5, 25.4 µM (inactive). For the same compound, the GI50 with SK-OV-3 is > 100 µM (inactive); in the test with SNB-19, > 100 µM (inactive); with SW-620, 28.9 µM (inactive); with T47D, 45.9 µM (inactive); with UO-31, 54.2 µM (inactive).
